Like-named read-outs stand apart in the source and are kept apart here.

Data set [1] relates to MAGI-R5 or HeLa CD4 LTR β-gal cells.
A short description of data set [2]: in vitro. The note with it: human.
The next data set relates to HIV-1IIIB. As to the kind of experiment: microbe, parasite or virus in culture. It is filed as cell-based.
The next data set relates to HIV-1SKI. Put plainly: CD4-dependent HIV transmission inhibition assay (cell-associated virus, GHOST cells). It is filed as cell-based.
The nature of data set [3]: in vitro. As to conditions: human. The source holds these as a separate data set.
Another data set relates to HIV-1JR-CSF. As to the kind of experiment: CD4-dependent HIV transmission inhibition assay (cell-associated virus, GHOST cells). It is filed as cell-based.
The nature of data set [4]: in vitro. The note with it: human. This is another data set of the same source.
Another data set relates to HIV-1BaL. As to the kind of experiment: Virus attachment assay. It is filed as cell-based. The note with it: Assay Virus HIV-1BaL.
Data set [5] relates to dual tropic (BR/92/014) strain of HIV-1. As to the kind of experiment: HIV-1 infection and replication in PBMCs, RT activity. It is filed as cell-based. The note with it: seven days, dual tropic virus.
The test system of data set [6] is CCR5 tropic (JRCSF) strain of HIV-1. The data set is described as above. It is filed as cell-based. As to conditions: seven days, CCR5 virus.
The test system of data set [7] is CXCR4 tropic (CMU06) strain of HIV-1. Described as above. The note with it: seven days, CXCR4 virus. The format is cell-based.
For data set [8] the following is noted: cited from earlier work.
Setting [9] is: Human immunodeficiency virus 1, CXCR4 Virus HIV-1SKI, cell-associated.
The mark [10] stands for this setting: Human immunodeficiency virus 1, Assay Virus HIV-1JR-CSF.
Setting [11] is: CXCR4 Virus HIV-1SKI, cell-associated.

Consider `c1cc(CN2CCCNCCNCCCNCC2)ccc1CN1CCCNCCNCCCNCC1` [AMD 3100], for which the CC50 (in data set [1] (human); in the data set “in vitro [2]”; in “in vitro [4]”) was over 10000 nM in each case. Moreover, the IC50 with HIV-1IIIB (Human immunodeficiency virus 1) stood at 1 nM; with HIV-1SKI (Human immunodeficiency virus 1, Pre-incubation pH: Standard Assay), 10 nM; in the data set with HIV-1SKI (Human immunodeficiency virus 1, pH 4, Pre-incubation pH 4.0), 1 nM; with HIV-1SKI (Human immunodeficiency virus 1, pH 5.85, Pre-incubation pH 5.85), 6 nM; with HIV-1SKI (Human immunodeficiency virus 1, pH 6.5, Pre-incubation pH 6.5), 80 nM; with HIV-1SKI (setting [9]), 5 nM. Moreover, the IC50 was over 10000 nM in the data set with HIV-1JR-CSF (setting [10]) and 3790 nM in the data set on HIV-1BaL (Human immunodeficiency virus 1). The concentration for an effect of 90% (IC90) is 8 nM in the data set with HIV-1IIIB (Human immunodeficiency virus 1), 60 nM in the data set on HIV-1SKI (setting [9]), over 10000 nM in the data set with HIV-1JR-CSF (setting [10]) and over 10000 nM in the data set with HIV-1BaL (Human immunodeficiency virus 1). The CC50 at 4 h in the data set “in vitro [3]” is over 10000 nM; in the data set “in vitro [3]” (pH 4), 4030 nM; in the data set “in vitro [3]” (pH 5.85), over 10000 nM; in the data set “in vitro [3]” (pH 6.5), over 10000 nM.

With `Cc1cn([C@H]2C[C@H](N=[N+]=[N-])[C@@H](CO)O2)c(=O)[nH]c1=O` [AZT], the IC50 in data set [5] was 0.27 nM; in data set [6], 1.48 nM; in data set [7] it was under 0.1 nM.

For the molecule “hydroxypropyl methylcellulose trimellitate [HPMCT]”, the CC50 in the data set on GHOST cells (pH 4) is 0.38%; in the data set on GHOST cells (pH 5.85), 0.38%; in the data set on GHOST cells (pH 6.5), 0.39%.

Regarding D-mallic acid, L-mallic acid, in data set [8] (room temperature), the “pKa Values (first value)” value is on record as 3.4 and the “pKa Values (second value)” value was 5.2.

For the molecule phthalate, the “pKa of the second (remaining dissociable) carboxylic acid group” value in data set [8] (moiety on the cellulose backbone) was 5.28.

On to `Cc1ccc(-c2ccc3c(c2)C=C(C(=O)Nc2ccc(C[N+](C)(C)C4CCOCC4)cc2)CCC3)cc1` [TAK 779], for which the values for the CC50 (in the data set on GHOST cells; in data set [1]; in the data set with HeLa CD4 LTR β-gal cells) were over 10 nM, over 200 nM and over 200 nM, respectively. In addition, the IC50 with HIV-1IIIB (Assay Virus HIV-1IIIB, read-out: IC50) is over 200 nM; with HIV-1SKI (setting [11]), over 10 nM; in the data set with HIV-1JR-CSF (Assay Virus HIV-1JR-CSF), 0.002 nM; with HIV-1BaL, under 0.002 nM. Also, the IC90 is over 200 nM with HIV-1IIIB (Assay Virus HIV-1IIIB, read-out: IC90); over 10 nM in the data set on HIV-1SKI (setting [11]); 0.55 nM in the data set with HIV-1JR-CSF (Assay Virus HIV-1JR-CSF); 0.04 nM in the data set with HIV-1BaL.

As usually defined, the IC50 is the concentration that gives 50% inhibition. What is called IC90 is the concentration at which the effect reaches the 90% level.
